From US10464896B2, “Efflux-pump inhibitors and therapeutic uses thereof” (Basilea Pharmaceutica International AG, priority 2015, dated 2019) come the findings set out here.

In this experiment the test system is E. coli ATCC25922. The experiment can be described thus: Antibacterial activity in combination with minocycline (growth inhibition). Format: cell-based. The conditions noted are these: Escherichia coli, minocycline 0.25 μg/mL, OD625 23 h minus 1 h; for activity at 50 µM: ATCC25922, compound at 50 μM. On the procedure: Antibacterial activity in combination with minocycline or with linezolid
Inhibition of growth was measured with E. coli ATCC25922 and P. aeruginosa PAO1 in a 96-well plate format. Cation-adjusted Müller-Hinton broth (caMHB) was inoculated with an overnight culture and incubated at 37° C. on a shaker until OD625 reached 0.6 to 0.7. Density was adjusted to OD600=0.5 by addition of caMHB. 35 μL of the suspension were diluted to 35 mL with caMHB and supplemented with minocycline at the subinhibitory doses of 0.25 μg/mL for E. coli and 8 μg/mL for P. aeruginosa or with linezolid at the subinhibitory dose of 128 μg/mL for E. coli and P. aeruginosa. Each well contained 1 μL of test compound in 100 μL caMHB with minocycline or with linezolid.
Plates were incubated at 37° C. on a plate shaker. OD625 was measured at 1 h, 6 h, and at 23 h.
The difference between OD at 23 h and at 1 h was taken as measure for cell density and compared to controls without inhibitor (i.e. uninhibited control). Results were expressed as residual growth (% of uninhibited control). Enhancement of minocycline or linezolid activity caused reduced residual growth.

[1] abbreviates: ATCC25922, compound at 25 μM, read-out: residual growth of E. coli ATCC25922 (% of uninhibited control) with minocycline.
Setting [2] is: read-out: residual growth of E. coli ATCC25922 (% of uninhibited control) with minocycline.

Read-outs that look alike come from different tables or passages of the source. Where only a bound is given, the exact number is not on record here.

`NC(=O)COc1cc(/C=C/c2ccc(Cl)cc2Br)cc(CNCC2CCNC2)c1` (centres unmarked) [Example 342]: the activity at 25 µM under setting [1] was at most 10%.

Take `CN1CC(OCCOc2cc(CNCC3CNC3)cc(OCc3ccc(Cl)cc3Br)c2)CC1C(=O)O` (centres unmarked) [Example 249]: the activity at 25 µM under setting [1] was at most 10%.

`C=CCOc1cc(/C=C/c2cncc(O)c2)cc(CNCC2CCNC2)c1` (centres unmarked) [Example 499]: under setting [2], the activity at 50 µM is at most 50%.

Regarding `C=CCOc1cc(/C=C/c2csc(C(C)C)n2)cc(CNCC2CNC2)c1` [Example 327], under setting [1], the activity at 25 µM was at most 10%.

As for `C=CCOc1cc(CNCC2CNC2)cc(C(=O)Nc2nc(C(C)(C)C)cs2)c1` [Example 392], the activity at 25 µM under setting [1] was at most 10%.

Turning to `Clc1ccc(C#Cc2cccc(CNCC3CNC3)c2)c(Br)c1` [Example 149, N-(azetidin-3-ylmethyl)-1-[3-[2-(2-bromo-4-chlorophenyl)ethynyl]phenyl]methanamine], under setting [1], the activity at 25 µM was at most 10%.

In the case of `OCc1cc(CNCC2CNC2)cc(OCc2ccc(Cl)cc2Br)c1` [Example 128], the activity at 25 µM under setting [1] is at most 10%.

With `Clc1ccc(OCc2cccc(CCNCC3CNC3)c2)c(Br)c1` [Example 58], under setting [1], the activity at 25 µM is at most 10%.

For the compound `C=CCOc1cc(/C=C/c2ccc(F)cc2)cc(CNCC2CNC2)c1` [Example 272], the activity at 25 µM under setting [1] is at most 10%.

In the case of `O=C(NCc1cc(CNCC2CCNC2)cc(OCCc2c[nH]cn2)c1)c1nc(C2CC2)cs1` (centres unmarked) [Example 391], the activity at 50 µM under setting [2] was at most 50%.

As for `C=CCOc1cc(/C=C/c2ccc(Cl)cc2Br)cc(CNC(=O)[C@@H]2CCNC2)c1` [Example 367], the activity at 25 µM under setting [1] is at most 10%.

Regarding `Clc1cc(/C=C/c2ccc(Cl)cc2Br)cc(CNCC2CNC2)c1` [Example 159], the activity at 25 µM under setting [1] is at most 10%.

As for `C=CCOc1cc(/C=C/c2ccc(Cl)cc2Br)cc(CNC(=O)CNCC2CNC2)c1` [Example 371], under setting [1], the activity at 25 µM was at most 10%.

On to `Clc1ccc(/C=C/c2cc(Cl)ccc2OCCCNCC2CCNC2)c(Br)c1` (centres unmarked) [Example 186], for which the activity at 25 µM under setting [1] is at most 10%.

Regarding `Clc1ccc(COc2ccc(CNCC3CCNCC3)cc2)cc1Cl` [Example 67], under setting [1], the activity at 25 µM was at most 10%.

Regarding `Clc1ccc(C=CCc2cccc(CNCC3CNC3)c2)c(Br)c1` (mixture of isomers) [Example 168, N-(azetidin-3-ylmethyl)-1-[3-[(Z/E)-3-(2-bromo-4-chloro-phenyl)allyl]phenyl]methanamine], for the setting “ATCC25922, read-out: residual growth of E. coli ATCC25922 (% of uninhibited control) with minocycline, compound at 25 μM”, the activity at 25 µM was at most 10%.

With `CC(NCC1CNC1)c1ccc(OCc2ccc(Cl)cc2Br)cc1` (centres unmarked) [Example 105], the activity at 25 µM under setting [1] was at most 10%.

Consider `Clc1ccc(COc2ccccc2CCCNCC2CNC2)c(Br)c1` [Example 113], for which the activity at 25 µM under setting [1] was at most 10%.

Consider `C=CCOc1cc(/C=C/c2c(C#N)cccc2C(F)(F)F)cc(CNCC2CNC2)c1` [Example 328], for which, under setting [1], the activity at 25 µM was at most 10%.

Take `Clc1ccc(CSc2cccc(CNCC3CNC3)c2)c(Br)c1` [Example 51, N-(azetidin-3-ylmethyl)-1-[3-[(2-bromo-4-chloro-phenyl)methylsulfanyl]phenyl]methanamine]: under setting [1], the activity at 25 µM is at most 10%.

Consider `CC(C)COc1cc(/C=C/c2cccnc2)cc(C[N+](C)(C)CC2CCNC2)c1` (centres unmarked) [Example 459], for which the activity at 25 µM under setting [1] is at most 10%.

In the case of `Clc1ccc(OCc2cccc(CNC3CCNCC3)c2)c(Br)c1` [Example 53], under setting [1], the activity at 25 µM is at most 10%.

Turning to `NC(=O)CCOc1cc(/C=C/c2ccc(Cl)cc2Br)cc(CNCC2CCNC2)c1` (centres unmarked) [Example 390], the activity at 25 µM under setting [1] was at most 10%.

On to `FC(F)(F)c1cc(Br)ccc1COc1cccc(CNCC2CNC2)c1` [Example 47], for which the activity at 25 µM under setting [1] is at most 10%.

Take `Clc1ccc(-c2ccc(CNCC3CNC3)cc2)cc1` [Example 25]: under setting [1], the activity at 25 µM was at most 10%.

Consider `CC(C)COc1cc(CNCC2CNC2)cc(OCc2ccc(C(C)(C)C)cc2)c1` [Example 274], for which the activity at 25 µM under setting [1] was at most 10%.

As for `Clc1ccc(/C=C/c2cc(OCCCNCC3CNC3)cc(OCCc3ccncc3)c2)c(Br)c1` [Example 509], under setting [1], the activity at 25 µM is at most 10%.

In the case of `CC(C)(C)c1ccc(/C=C/c2cccc(CNCC3CNC3)c2)cc1` [Example 234], the activity at 25 µM under setting [1] was at most 10%.

As for `Clc1ccc(/C=C/c2cc(CNCC3CCNC3)cc(OCCc3ccncc3)c2)c(Br)c1` (centres unmarked) [Example 254], under setting [1], the activity at 25 µM is at most 10%.

In the case of `Clc1ccc(COc2ccc(Br)c(CNCC3CNC3)c2)c(Br)c1` [Example 97], the activity at 25 µM under setting [1] was at most 10%.

As to `C=CCOc1ccc(OCc2ccc(Cl)cc2Br)cc1CNCC1CNC1` [Example 413], under setting [1], the activity at 25 µM is at most 10%.

`Clc1ccc(COc2ccccc2CNCC2CNC2)c(Br)c1` [Example 33]: the activity at 25 µM under setting [1] is at most 10%.

Consider `Clc1ccc(OCc2cccc(CCCNCC3CNC3)c2)c(Br)c1` [Example 73], for which, under setting [1], the activity at 25 µM was at most 10%.

In the case of `Cc1cc(COc2cc(/C=C/c3ccc(Cl)cc3Br)cc(CNCC3CCNC3)c2)no1` (centres unmarked) [Example 347], under setting [1], the activity at 25 µM was at most 10%.

For the compound `C=CCOc1cc(/C=C/c2cccs2)cc(CNCC2CNC2)c1` [Example 317], under setting [1], the activity at 25 µM is at most 10%.

Consider `Clc1ccc(-c2cccc(CNCC3CNC3)c2)c(Br)c1` [Example 75], for which, under setting [1], the activity at 25 µM is at most 10%.

As to `C=CCOc1cc(/C=C/c2ncccc2C#N)cc(CNCC2CCNC2)c1` (centres unmarked) [Example 315], under setting [1], the activity at 25 µM is at most 10%.

For the compound `Clc1ccc(/C=C/c2cc(CNCC3CNC3)cc(OCCc3ccncc3)c2)c(Br)c1` [Example 260], under setting [1], the activity at 25 µM is at most 10%.

In the case of `CC(C)COc1ccc(/C=C/c2ccc(Cl)cc2Br)cc1CNCC1CCNC1` (centres unmarked) [Example 431], the activity at 25 µM under setting [1] is at most 10%.

Consider `CC(C)COc1ccc(OCc2ccc(Cl)cc2Br)cc1CNCC1CCNC1` (centres unmarked) [Example 416], for which the activity at 25 µM under setting [1] is at most 10%.

As to `C=CCOc1cc(/C=C/c2cncc(C#N)c2)cc(CNCC2CCNC2)c1` (centres unmarked) [Example 325], the activity at 25 µM under setting [1] was at most 10%.

As for `C[N+]1(C)CC(OCCOc2cc(CNCC3CCNC3)cc(OCc3ccc(Cl)cc3Br)c2)CC1C(=O)O` (centres unmarked) [Example 247], under setting [1], the activity at 25 µM is at most 10%.

`C=CCOc1cc(/C=C/c2ccsc2)cc(CNCC2CNC2)c1` [Example 318]: the activity at 25 µM under setting [1] is at most 10%.

As to `Clc1ccc(/C=C/c2cc(OCCc3ccncc3)ccc2OCCCNCC2CNC2)c(Br)c1` [Example 525], under setting [1], the activity at 25 µM is at most 10%.

For `Clc1ccc(/C=C/c2ccc(OCCc3c[nH]cn3)c(CNCC3CNC3)c2)c(Br)c1` [Example 471], the activity at 25 µM under setting [1] was at most 10%.

`Clc1ccc(/C=C/c2cc(OCCCCNCC3CNC3)cc(OCCc3ccncc3)c2)c(Br)c1` [Example 517]: under setting [1], the activity at 25 µM is at most 10%.

On to `N[C@@H]1CN[C@@H](CNCc2cc(Cl)cc(OCc3ccc(Cl)cc3Br)c2)C1` [Example 175], for which the activity at 25 µM under setting [1] is at most 10%.

In the case of `Clc1ccc(/C=C\c2cc(CNCC3CCNC3)cc(OCCN3CCOCC3)c2)c(Br)c1` (centres unmarked) [Example 241], the activity at 25 µM under setting [1] is at most 10%.

As for `Fc1cc(Br)ccc1COc1ccc(CNCC2CCNC2)cc1` (centres unmarked) [Example 55], under setting [1], the activity at 25 µM was at most 10%.

On to `CC(C)(C)c1ccc(/C=C\c2cccc(CNCC3CNC3)c2)cc1` [Example 237], for which, under setting [1], the activity at 25 µM is at most 10%.

As to `CC(C)COc1cc(CNCC2CCNC2)cc(OCc2ccc(Cl)cn2)c1` (centres unmarked) [Example 267], the activity at 25 µM under setting [1] is at most 10%.

As for `Clc1ccc(OCc2cccc(CNCC3CNC3)c2)c(Br)c1` [Example 38], under setting [1], the activity at 25 µM is at most 10%.

Regarding `C=CCOc1cc(CNCC2CNC2)cc(CNS(=O)(=O)c2ccc(C(C)(C)C)cc2)c1` [Example 369, N-[[3-allyloxy-5-[(azetidin-3-ylmethylamino)methyl]phenyl]methyl]-4-tert-butyl-benzenesulfonamide], the activity at 25 µM under setting [1] is at most 10%.

On to `C=CCOc1cc(/C=C/c2cc(C#N)cc(C(F)(F)F)c2)cc(CNCC2CNC2)c1` [Example 309], for which, under setting [1], the activity at 25 µM is at most 10%.

As to `Clc1ccc(/C=C/c2cccc(OCCCNCC3CNC3)c2)c(Br)c1` [Example 201, N-(azetidin-3-ylmethyl)-3-[3-[(E)-2-(2-bromo-4-chloro-phenyl)vinyl]phenoxy]propan-1-amine], the activity at 25 µM under setting [1] is at most 10%.

Take `C=CCOc1cc(/C=C/c2cncc(C(=O)OC)c2)cc(CNCC2CCNC2)c1` (centres unmarked) [Example 457]: the activity at 25 µM under setting [1] is at most 10%.

In the case of `Fc1cc(F)cc(COc2cccc(CNCC3CNC3)c2)c1` [Example 43], the activity at 25 µM under setting [1] is at most 10%.

Regarding `CC(C)COc1cc(/C=C/c2ccc(Cl)cc2Br)cc(CNCC2CCNC2)c1` (centres unmarked) [Example 182], under setting [1], the activity at 25 µM is at most 10%.

Regarding `CC(C)(C)c1cc(CNCC2CCNC2)cc(OCc2ccc(Cl)cc2Br)c1` (centres unmarked) [Example 218], the activity at 25 µM under setting [1] is at most 10%.

With `N#Cc1ccc(/C=C/c2cccc(CNCC3CNC3)c2)cc1C(F)(F)F` [Example 308], the activity at 25 µM under setting [1] is at most 10%.

In the case of `C=CCOc1cc(/C=C/c2ccc(OC)cc2)cc(CNCC2CNC2)c1` [Example 294], the activity at 25 µM under setting [1] was at most 10%.

For `C=CCOc1cc(/C=C/c2ccc(Cl)cc2Br)cc(CNCCNC(=O)C2CNC2)c1` [Example 450], under setting [1], the activity at 25 µM is at most 10%.
